For 21 compounds, EC50 results are on record in patent publication US20230062119A1, “USE OF BIOMARKERS IN IDENTIFYING PATIENTS THAT WILL BE RESPONSIVE TO TREATMENT WITH A PRMT5 INHIBITOR” (Merck Sharp & Dohme LLC, priority 2019, published 2023).

As usually defined, the EC50 is the concentration that produces a half-maximal response.

This assay addresses T1, Full-length (FL)-PRMT5-MEP50 enzyme complex (Homo sapiens, UniProt O14744).
T1 construct: Full-length (FL)-PRMT5-MEP50 enzyme complex (recombinant proteins from baculovirus-transfected Sf21 cells: FL-PRMT5; MW=73837 kDa and FL-MEP50; MW=38614); made in house; host or cells: baculovirus-transfected Sf21 insect cells
Briefly: PRMT5-MEP50 Enzyme Methylation Assay. The class given is biochemical. The settings on record: 1.0 nM PRMT5-MEP50, 75 nM biotinylated peptide, 15 μM SAM. As for the experimental part: PRMT5-MEP50 biochemical assay is a direct measurement of the methylation activity of the enzyme complex on a short peptide substrate derived from the N-terminus of H4 histone. Methylation experiment is performed with recombinant PRMT5-MEP50 protein complex. The assessment of inhibitory effect of small molecules is measured by the effectiveness of the compounds to inhibit this reaction (EC50).
In this assay, the potency (EC50) of each compound was determined from a twenty-point (1:2 serial dilution; top compound concentration of 100000 nM) titration curve using the following outlined procedure. To each well of a white ProxiPlus 384 well-plate, 100 nL of compound (1% DMSO in final assay volume of 10 μL) was dispensed, followed by the addition of 8 μL of 1× assay buffer (50 mM Bicine pH 8.0, 1 mM DTT, 0.004% Tween20, 0.01% BSA) containing 1.25 nM of Full-length (FL)-PRMT5-MEP50 enzyme complex (recombinant proteins from baculovirus-transfected Sf21 cells: FL-PRMT5; MW=[…] and FL-MEP50; MW=38614) and 1 μL of 150 μM S-(5′-Adenosyl)-L-Methionine Chloride (SAM). Plates were sealed and placed in a 37° C. humidified chamber for a 60 minutes pre-incubation with compound. Subsequently, each reaction was initiated by the addition of 1 μL 1× assay buffer containing 750 nM biotinylated H4R3(Mel) peptide. The final reaction in each well of 10 μL consists of 1.0 nM PRMT5-MEP50, 75 nM biotinylated-peptide, and 15 μM SAM. Methylation reactions proceeded for 150 minutes in a sealed plate at 37° C. Reactions were immediately quenched by the addition of 1 μL of 5% formic acid. Plates were then frozen and shipped to SAMDI™ Tech Inc. to determine the percent conversion from H4R3(Mel) to H4R3(Me2). Dose-response curves were generated by plotting percent effect (% product conversion; Y-axis) vs. Log 10 compound concentrations (X-axis). EC50 values were determined by non-linear regression according to models for either sigmoidal (4 parameters) or biphasic (7 parameters) dose-response curves.

[1] abbreviates: one EC50: 4 parameters single site sigmoidal model, EC50 1: first value of 7 parameters biphasic model, read-out: Enzyme Methylation Assay (EC50 or EC50 1).
[2] abbreviates: second EC50 of 7 parameters biphasic model, read-out: Enzyme Methylation Assay (EC50 2).

Structures are written as SMILES. Where two headings read alike, the source gives them in different places.

T1 sequence (O14744 whole entry): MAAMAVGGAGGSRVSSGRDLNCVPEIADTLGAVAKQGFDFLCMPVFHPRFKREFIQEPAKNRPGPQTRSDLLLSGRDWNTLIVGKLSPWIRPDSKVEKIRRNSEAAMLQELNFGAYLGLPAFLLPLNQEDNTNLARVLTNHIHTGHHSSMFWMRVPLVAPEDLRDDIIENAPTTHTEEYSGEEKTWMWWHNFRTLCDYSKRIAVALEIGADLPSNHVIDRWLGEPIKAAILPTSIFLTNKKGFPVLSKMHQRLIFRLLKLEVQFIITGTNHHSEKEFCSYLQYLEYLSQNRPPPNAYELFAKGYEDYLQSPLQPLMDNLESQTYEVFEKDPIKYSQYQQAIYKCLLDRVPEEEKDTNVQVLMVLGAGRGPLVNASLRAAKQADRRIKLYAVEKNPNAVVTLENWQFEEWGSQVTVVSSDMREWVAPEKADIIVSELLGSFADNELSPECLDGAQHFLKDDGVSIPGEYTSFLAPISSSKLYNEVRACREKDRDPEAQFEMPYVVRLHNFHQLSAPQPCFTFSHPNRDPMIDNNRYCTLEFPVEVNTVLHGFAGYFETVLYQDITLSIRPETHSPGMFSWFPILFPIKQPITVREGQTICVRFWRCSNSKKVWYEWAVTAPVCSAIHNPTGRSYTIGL
T1 sequence (Q9BQA1 whole entry partner): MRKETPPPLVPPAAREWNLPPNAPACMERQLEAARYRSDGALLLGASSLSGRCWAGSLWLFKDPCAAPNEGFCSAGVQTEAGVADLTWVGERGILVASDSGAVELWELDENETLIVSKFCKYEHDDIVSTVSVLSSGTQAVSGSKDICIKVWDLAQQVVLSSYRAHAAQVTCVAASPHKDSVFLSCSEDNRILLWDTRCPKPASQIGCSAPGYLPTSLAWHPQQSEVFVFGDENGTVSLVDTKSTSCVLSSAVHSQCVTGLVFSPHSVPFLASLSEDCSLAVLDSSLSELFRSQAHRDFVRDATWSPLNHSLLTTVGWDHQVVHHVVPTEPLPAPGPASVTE

`C[C@@]1(O)[C@@H](COc2ccc3cc(Br)c(N)nc3c2)C[C@@H](n2ccc3c(Cl)ncnc32)[C@@H]1O` [Example 1, (1R,2S,3R,5R)-5-(((2-amino-3-bromoquinolin-7-yl)oxy)methyl)-3-(4-chloro-7H-pyrrolo[2,3-d]pyrimidin-7-yl)-1-methylcyclopentane-1,2-diol]: the EC50 worked out at 0.5 nM under setting [1] and 56 nM under setting [2].
Regarding `C[C@@]1(O)[C@@H](COc2ccc3cc(Br)c(N)nc3c2)C[C@@H](n2ccc3c(N)ncnc32)[C@@H]1O` [Example 2, (1R,2S,3R,5R)-5-(((2-amino-3-bromoquinolin-7-yl)oxy)methyl)-3-(4-amino-7H-pyrrolo[2,3-d]pyrimidin-7-yl)-1-methylcyclopentane-1,2-diol], under setting [1], the EC50 stood at 0.5 nM.
As for `C#C[C@@]1(O)[C@@H](COc2ccc3cc(Br)c(N)nc3c2)O[C@@H](n2ccc3c(N)ncnc32)[C@@H]1O` [Example 3, (2R,3S,4R,5R)-2-(((2-amino-3-bromoquinolin-7-yl)oxy)methyl)-5-(4-amino-7H-pyrrolo[2,3-d]pyrimidin-7-yl)-3-ethynyltetrahydrofuran-3,4-diol], the EC50 runs as follows: under setting [1], 0.8 nM; under setting [2], 193 nM.
For the compound `C[C@]1(CCc2ccc3cc(Br)c(N)nc3c2)O[C@@H](n2ccc3c(N)ncnc32)[C@H](O)[C@]1(C)O` [Example 4, (2R,3S,4R,5R)-2-(2-(2-amino-3-bromoquinolin-7-yl)ethyl)-5-(4-amino-7H-pyrrolo[2,3-d]pyrimidin-7-yl)-2,3-dimethyltetrahydrofuran-3,4-diol], the EC50 runs as follows: under setting [1], 2.4 nM; under setting [2], 288 nM.
For `Nc1nc2cc(O[C@H]3CC[C@@]4(O)[C@@H]3O[C@@H](n3ccc5c(Cl)ncnc53)[C@@H]4O)ccc2cc1Br` [Example 5, (2R,3R,3aS,6S,6aR)-6-((2-amino-3-bromoquinolin-7-yl)oxy)-2-(4-chloro-7H-pyrrolo[2,3-d]pyrimidin-7-yl)hexahydro-2H-cyclopenta[b]furan-3,3a-diol], the 50% effective concentration (EC50) under setting [1] was 0.8 nM.
The same measure, in the same setting: the figure for `Nc1nc2cc(O[C@H]3CC[C@@]4(O)[C@@H]3O[C@@H](n3ccc5c(N)ncnc53)[C@@H]4O)ccc2cc1Br` [Example 6, (2R,3R,3aS,6S,6aR)-6-((2-amino-3-bromoquinolin-7-yl)oxy)-2-(4-amino-7H-pyrrolo[2,3-d]pyrimidin-7-yl)hexahydro-2H-cyclopenta[b]furan-3,3a-diol] is 0.6 nM; for `Cc1ncnc2c1ccn2[C@@H]1O[C@@H]2[C@@H](Oc3ccc4cc(Br)c(N)nc4c3)CC[C@]2(O)[C@H]1O` [Example 7, (2R,3R,3aS,6S,6aR)-6-((2-amino-3-bromoquinolin-7-yl)oxy)-2-(4-methyl-7H-pyrrolo[2,3-d]pyrimidin-7-yl)hexahydro-2H-cyclopenta[b]furan-3,3a-diol] it is 0.7 nM.
Consider `Cc1ncnc2c1ccn2[C@@H]1O[C@@H]2[C@H](Cc3ccc4cc(Br)c(N)nc4c3)CC[C@]2(O)[C@H]1O` [Example 8, (2R,3R,3aS,6S,6aR)-6-((2-amino-3-bromoquinolin-7-yl)methyl)-2-(4-methyl-7H-pyrrolo[2,3-d]pyrimidin-7-yl)hexahydro-2H-cyclopenta[b]furan-3,3a-diol], for which the EC50 under setting [1] stood at 0.5 nM.
In the case of `Nc1nc2cc(C[C@@H]3CC[C@@]4(O)[C@@H]3O[C@@H](n3ccc5c(N)ncnc53)[C@@H]4O)ccc2cc1Br` [Example 9, (2R,3R,3aS,6S,6aR)-6-((2-amino-3-bromoquinolin-7-yl)methyl)-2-(4-amino-7H-pyrrolo[2,3-d]pyrimidin-7-yl)hexahydro-2H-cyclopenta[b]furan-3,3a-diol], the EC50 under setting [1] is 0.3 nM.
As to `C[C@@]1(O)[C@@H](COc2ccc3cc(Br)c(N)nc3c2)O[C@@H](n2ccc3c(N)ncnc32)[C@@H]1O` [Example 10, (2R,3S,4R,5R)-2-(((2-amino-3-bromoquinolin-7-yl)oxy)methyl)-5-(4-amino-7H-pyrrolo[2,3-d]pyrimidin-7-yl)-3-methyltetrahydrofuran-3,4-diol], the EC50 under setting [1] came to 0.5 nM and the EC50 under setting [2] worked out at 22 nM.
As for `C[C@@]1(O)[C@@H](COc2ccc3cc(Br)c(N)nc3c2)O[C@@H](n2ccc3c(Cl)ncnc32)[C@@H]1O` [Example 11, (2R,3S,4R,5R)-2-{[(2-amino-3-bromoquinolin-7-yl)oxy]methyl}-5-(4-chloro-7H-pyrrolo[2,3-d]pyrimidin-7-yl)-3-methyltetrahydrofuran-3,4-diol], the EC50 under setting [1] was determined as 0.9 nM and the EC50 under setting [2] was found to be 501 nM.
On to `COc1ncnc2c1ccn2[C@@H]1O[C@](C)(COc2ccc3cc(Br)c(N)nc3c2)[C@@H](O)[C@H]1O` [Example 12, (2R,3S,4R,5R)-2-(((2-amino-3-bromoquinolin-7-yl)oxy)methyl)-5-(4-methoxy-7H-pyrrolo[2,3-d]pyrimidin-7-yl)-2-methyltetrahydrofuran-3,4-diol], for which the EC50 runs as follows: under setting [1], 33 nM; under setting [2], 20900 nM.
As for `C[C@]1(COc2ccc3cc(Br)c(N)nc3c2)O[C@@H](n2ccc3c(N)ncnc32)[C@H](O)[C@@H]1O` [Example 13, (2R,3S,4R,5R)-2-(((2-amino-3-bromoquinolin-7-yl)oxy)methyl)-5-(4-amino-7H-pyrrolo[2,3-d]pyrimidin-7-yl)-2-methyltetrahydrofuran-3,4-diol], the concentration giving a half-maximal response (EC50) is, setting by setting: under setting [1], 0.5 nM; under setting [2], 89 nM.
For `C[C@@]1(O)[C@@H](CCc2ccc3cc(Br)c(N)nc3c2)O[C@@H](n2ccc3c(N)ncnc32)[C@@H]1O` [Example 14, (2R,3S,4R,5R)-2-(2-(2-amino-3-bromoquinolin-7-yl)ethyl)-5-(4-amino-7H-pyrrolo[2,3-d]pyrimidin-7-yl)-3-methyltetrahydrofuran-3,4-diol], the EC50 came to 1.3 nM under setting [1] and 182 nM under setting [2].
As for `C[C@]1(CCc2ccc3cc(Br)c(N)nc3c2)C[C@@H](n2ccc3c(N)ncnc32)[C@H](O)[C@@H]1O` [Example 15, (1S,2R,3S,5R)-3-[2-(2-amino-3-bromo-7-quinolinyl)ethyl]-5-(4-amino-7H-pyrrolo[2,3-d]pyrimidin-7-yl)-3-methyl-1,2-cyclopentanediol], the concentration giving a half-maximal response (EC50) under setting [1] came to 0.8 nM.
For `Cc1ncnc2c1ccn2[C@@H]1C[C@@H]2[C@H](Cc3ccc4cc(F)c(N)nc4c3)CC[C@]2(O)[C@H]1O` [Example 16, (1S,2R,3aR,4S,6aR)-4-((2-amino-3-fluoroquinolin-7-yl)methyl)-2-(4-methyl-7H-pyrrolo[2,3-d]pyrimidin-7-yl)hexahydropentalene-1,6a(1H)-diol], under setting [1], the EC50 stood at 0.4 nM.
As for `Cc1ncnc2c1ccn2[C@@H]1C[C@@H]2[C@H](Cc3ccc4cc(Cl)c(N)nc4c3)CC[C@]2(O)[C@H]1O` [Example 17, (1S,2R,3aR,4S,6aR)-4-((2-amino-3-chloroquinolin-7-yl)methyl)-2-(4-methyl-7H-pyrrolo[2,3-d]pyrimidin-7-yl)hexahydropentalene-1,6a(1H)-diol], the EC50 under setting [1] worked out at 0.3 nM.
For `Cc1ncnc2c1ccn2[C@@H]1C[C@@H]2[C@@H](Cc3ccc4cc(F)c(N)nc4c3)CC[C@]2(O)[C@H]1O` [Example 18, (1S,2R,3aR,4R,6aR)-4-((2-amino-3-fluoroquinolin-7-yl)methyl)-2-(4-methyl-7H-pyrrolo[2,3-d]pyrimidin-7-yl)hexahydropentalene-1,6a(1H)-diol], the EC50 worked out at 0.4 nM under setting [1] and 229 nM under setting [2].
For `Cc1ncnc2c1ccn2[C@@H]1C[C@@H]2[C@H](Cc3ccc4cc(Br)c(N)nc4c3)CC[C@]2(O)[C@H]1O` [Example 19, (1S,2R,3aR,4S,6aR)-4-((2-amino-3-bromoquinolin-7-yl)methyl)-2-(4-methyl-7H-pyrrolo[2,3-d]pyrimidin-7-yl)hexahydropentalene-1,6a(1H)-diol], under setting [1], the EC50 amounted to 0.4 nM.
Same read-out and setting: the figure for `Nc1nc2c(F)c(C[C@@H]3CC[C@@]4(O)[C@@H]3O[C@@H](n3ccc5c(N)ncnc53)[C@@H]4O)ccc2cc1F` [Example 20, (2R,3R,3aS,6S,6aR)-6-[(2-amino-3,8-difluoroquinolin-7-yl)methyl]-2-(4-amino-7H-pyrrolo[2,3-d]pyrimidin-7-yl)hexahydro-3aH-cyclopenta[b]furan-3,3a-diol] is 0.5 nM; for `Nc1nc2cc(C[C@@H]3CC[C@@]4(O)[C@@H]3O[C@@H](n3ccc5c(N)ncnc53)[C@@H]4O)cc(F)c2cc1Cl` [Example 21, (2R,3R,3aS,6S,6aR)-6-[(2-amino-3-chloro-5-fluoroquinolin-7-yl)methyl]-2-(4-amino-7H-pyrrolo[2,3-d]pyrimidin-7-yl)hexahydro-3aH-cyclopenta[b]furan-3,3a-diol] it is 0.8 nM.
